Measured values from patent US20110269817A1, “COMPOSITIONS AND METHODS RELATED TO SIRT1 FUNCTION” (The Regents of the University of California, priority 2008, published 2011).
Entries after “also recorded” stand apart in the source; their conditions may differ. Read-outs that look alike come from different tables or passages of the source.

Tests used:
SIRT1 = target: T1, SIRT1 (Homo sapiens, UniProt Q96EB6); assay: BMAL1 deacetylation by SIRT1 in JEG3 cells transfected with Myc-CLOCK, Flag-Myc-BMAL1 and SIRT1-HA; type: cell-based; conditions: 1 mM NAD+ or 10 mM NAM for 16 hr
T1 construct: expressed in transfected cells; host or cells: JEG3
T1 sequence (Q96EB6 1-747): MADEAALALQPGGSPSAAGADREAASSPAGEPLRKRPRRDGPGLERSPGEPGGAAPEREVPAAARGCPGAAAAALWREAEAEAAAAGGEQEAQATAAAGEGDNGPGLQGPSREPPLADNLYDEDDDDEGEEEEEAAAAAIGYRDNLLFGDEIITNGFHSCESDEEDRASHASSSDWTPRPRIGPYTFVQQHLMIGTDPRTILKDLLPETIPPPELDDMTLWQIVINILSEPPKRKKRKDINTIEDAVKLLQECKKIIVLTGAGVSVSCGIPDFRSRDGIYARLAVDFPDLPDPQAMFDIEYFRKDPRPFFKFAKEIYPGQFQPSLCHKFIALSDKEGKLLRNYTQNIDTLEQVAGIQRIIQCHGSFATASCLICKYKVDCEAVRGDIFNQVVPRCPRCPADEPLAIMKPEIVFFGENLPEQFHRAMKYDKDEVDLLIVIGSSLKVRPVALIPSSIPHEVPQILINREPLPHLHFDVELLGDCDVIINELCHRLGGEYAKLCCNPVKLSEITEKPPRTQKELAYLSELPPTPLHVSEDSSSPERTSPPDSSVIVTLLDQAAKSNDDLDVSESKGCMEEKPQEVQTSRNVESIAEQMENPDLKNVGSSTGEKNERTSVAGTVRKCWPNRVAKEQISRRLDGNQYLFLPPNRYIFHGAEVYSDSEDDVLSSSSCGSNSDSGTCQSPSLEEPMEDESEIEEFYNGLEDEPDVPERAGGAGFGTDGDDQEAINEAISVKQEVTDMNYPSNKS
Protocol: (D) Deacetylation of BMAL1 by SIRT1 is NAD^+ dependent manner. JEG3 cells transfected with Myc-CLOCK and Flag-Myc-BMAL1 and SIRT1-HA were treated with 1 mM NAD^+ or 10 mM NAM for 16 hr before harvest. Immunoprecipitated BMAL1 proteins by FLAG antibody were probed with acetylated BMAL1 antibody. SIRT1 protein amount was detected by SIRT1 antibody.
(§1) Recently we have reported that BMAL1 is rhythmically acetylated by CLOCK and that this event is essential for control of circadian function (Hirayama et al., 2007). We have generated an antibody that specifically recognizes acetylated BMAL1 at Lys537 (FIG. 10). Because of the interplay between CLOCK and SIRT1, we suspected that the deacetylase that could regulate the dynamic levels of BMAL1 acetylation could be SIRT1. To identify which class of HDAC is responsible for deacetylation of BMAL1, we treated cultured cells expressing Myc-CLOCK and Flag-Myc-BMAL1 with class I and II inhibitor, trichostatin A (TSA), and/or class III inhibitor, NAM, for 6 hr and 16 hr, respectively. […] We then coexpressed BMAL1 with CLOCK and confirmed that the anti-AcBMAL1 antibody readily recognizes CLOCK-induced acetylation at Lys537 (FIG. 6B). […] We also confirmed that SIRT1 readily deacetylates BMAL1 in an in vitro deacetylation assay (FIG. 11).

CLOCK-SIRT1 interaction = CLOCK-SIRT1 interaction (coimmunoprecipitation) in transfected JEG3 cells; type: cell-based, human; conditions: treated 1, 2 and 6 h, 1 mM NAD+, 10 mM glucose, 1 mM pyruvate, 100 μM DFO, 100 μM resveratrol, 120 μM splitomicin
Protocol: The effect of various agents on the CLOCK-SIRT1 interaction was analyzed. […] JEG3 cells were cultured in BME containing 10% FBS and transfected with Myc-CLOCK, Myc-BMAL1, and Flag-SIRT1 constructs. Negative control (NC) represents cells transfected only with Myc-CLOCK and Myc-BMAL1. 24 h after transfection cells were replated, allowed to readhere for another 16 hours, and treated with indicated reagents for 1, 2 and 6 hours. Here the results with 6 h treatment are shown, the same results were obtained at 1 h and 2 h. Nuclear extracts were processed as previously described (Hirayama et al. 2007). This experiment was performed 3 times and a representative result is shown.
Legend: Lane 1: control (C); lane 2: 50% horse serum (HS); lane 3: 1 mM NAD^+ (NAD^+); lane 4: 10 mM glucose (Glc); lane 5: 1 mM pyruvate (Pyr); 6: 100 μM DFO (DF); lane 7: 100 μM resveratrol; (Res) lane 8:120 μM splitomicin (Split). Lane 9: negative control (NC).

[1] = test system: dbp expression levels in WT MEFs; assay: dbp circadian expression in serum-shocked WT MEFs treated with SIRT1 inhibitors, quantitative PCR; type: cell-based, mouse
Protocol: (A) Dbp expression levels in MEFs either treated with SIRT1 inhibitors (10 mMNAM or […]) or not were analyzed by quantitative PCR. The value at time 20 in MEFs without treatment was set to 1.
(§2) MEFs were generated from WT or homozygous Sirt1−/− sibling mice and cultured in DMEM (4.5 g/l glucose) supplemented with 7.5% newborn bovine serum, 2.5% FBS, and antibiotics. JEG3 cells were grown in Basal Medium Eagle supplemented with 10% FBS and antibiotics.
Each quantitative real-time RT-PCR was performed using the Chromo4 real time detection system (BIO-RAD). The PCR primers for mDbp mRNA, mPer2 mRNA, mCry 1 mRNA, 18S rRNA, Dbp UP, Dbp E-box, Dbp 30R, and mSIRT1 mRNA were described (Ripperger and Schibler, 2006; Rodgers et al., 2005; Yamamoto et al., 2004). PCR primers for Dbp TSS were designed using Real-Time PCR Primer Design (https://www.genscript.com/ssl-bin/app/primer), and the sequences are available upon request. For a […] PCR, 50 ng of cDNA template was mixed with the primers to final concentrations of 200 nM and […] of iQ SYBR Green Supermix (BIO-RAD), respectively. The reaction was first incubated at 95° C. for 3 min, followed by 40 cycles at 95° C. for 30 s and 60° C. for 1 min.

Sirt1−/− MEFs = assay: circadian gene expression in serum-shocked Sirt1−/− MEFs treated with SIRT1 inhibitors; type: cell-based, mouse
Protocol: as §2

[2] = test system: histone H3 Lys9/Lys14 acetylation at the Dbp transcription start site; assay: ChIP assay of histone H3 (Lys9/Lys14) acetylation at dbp TSS in serum-shocked MEFs; type: cell-based, mouse; conditions: WT MEFs after serum shock, 10 mM NAM or
Protocol: (B-D) Crosslinked cell extracts were isolated from MEF without treatment (B) or with SIRT1 inhibitors, 10 mMNAM (C), or […] (D) at indicated time points after serum shock, subjected to ChIP assay, and analyzed by quantitative PCR with dbp TSS primers (See FIG. 4C). Results of semiquantitative PCR are also shown at the bottom of each experiment. The value at time 16 in MEFs without treatment was set to 1. All data presented are the means±SEM of three independent samples.
Conventional ChIP assay was used for histones from MEFs (Yamamoto et al., 2004). For nonhistone proteins, dual crosslinking ChIP assay (Nowak et al., 2005) was used with slight modifications. After serum shock, cells were washed three times with room temperature PBS, then PBS/1 mM MgCl2 was added. Disuccinimidyl Glutalate (DSG) was added to a final concentration of 2 mM for crosslinking. After 45 min at room temperature, formaldehyde was added to a final concentration of 1% (v/v) and cells incubated for 15 min. […]
We analyzed the acetylation at Lys9 and Lys14 of histone H3 because we had previously found these to be preferential sites of CLOCK's HAT activity (Doi et al., 2006), and also because SIRT1 deacetylase function was described to be targeted to these lysines (Imai et al., 2000). […]

BMAL1 Lys537 acetylation = BMAL1 Lys537 acetylation in JEG3 cells expressing Myc-CLOCK and Flag-Myc-BMAL1, HDAC inhibitor treatment; type: cell-based, human; conditions: NAM (10 mM) 16 hr
Protocol: (A) Class III HDAC inhibitor enhances BMAL1 Lys537 acetylation. JEG3 cells transfected with Myc-CLOCK and Flag-Myc-BMAL1 were treated with HDAC I and II inhibitor, TSA […], for 6 hr and HDAC III inhibitor, NAM (10 mM), for 16 hr before harvest. Immunoprecipitated BMAL1 proteins by FLAG antibody were subjected to SDS-PAGE and probed with acetylated BMAL1 or Myc antibodies.
as §1

Compound | BMAL1 deacetylation by SIRT1 (SIRT1) | modulation of the CLOCK-SIRT1 interaction (CLOCK-SIRT1 interaction) | circadian acetylation of histone H3 Lys9/Lys14 at Dbp TSS [2] | other results
NC(=O)c1ccc[n+]([C@@H]2O[C@H](COP(=O)([O-])OP(=O)(O)OC[C@H]3O[C@@H](n4cnc5c(N)ncnc54)[C@H](O)[C@@H]3O)[C@@H](O)[C@H]2O)c1 [NAD^+, nicotinamide adenine dinucleotide] | responsive | not significantly modulated |  | 
NC(=O)c1cccnc1 [NAM, nicotinamide] | significantly attenuated |  | loss in the circadian oscillation of acetylation, generating a noncyclic, high level of Lys9/Lys14 acetylation | dbp expression pattern (circadian oscillation) ([1]; WT MEFs after serum shock, 10 mM NAM or splitomicin): significantly broader phase and higher amplitude in the oscillation; also recorded: loss in stringency of circadian gene expression; effect of SIRT1 inhibitors on circadian gene expression in Sirt1−/− MEFs (Sirt1−/− MEFs): no effect; acetylation of BMAL1 at Lys537 (BMAL1 Lys537 acetylation): significantly increased
CC(=O)N(O)CCCCCNC(=O)CCC(=O)N(O)CCCCCNC(=O)CCC(=O)N(O)CCCCCN [desferroxamine] |  | not significantly modulated |  | 
Oc1ccc(C=Cc2cc(O)cc(O)c2)cc1 [resveratrol] |  | not significantly modulated |  | 
O=C1CCc2c(ccc3ccccc23)O1 [splitomicin] |  | not significantly modulated | loss in the circadian oscillation of acetylation, generating a noncyclic, high level of Lys9/Lys14 acetylation | dbp expression pattern (circadian oscillation) [1]: significantly broader phase and higher amplitude in the oscillation; also recorded: loss in stringency of circadian gene expression; effect of SIRT1 inhibitors on circadian gene expression in Sirt1−/− MEFs (Sirt1−/− MEFs; Sirt1−/− MEFs, data not shown): no effect
